# ChEMBL document CHEMBL5727130, “Pyridone derivative, pharmaceutical containing the same and methods of use thereof” (2018)
# Assay: Inhibition Assay: The TACE inhibition test was carried out by measuring TACE activity in the presence and the absence of the test substance using the thus-obtained TACE as an enzyme, and a fluorescent synthetic substrate Nma(N-methylanthranilic acid)-Leu-Ala-Gln-Ala-Val-Arg-Ser-Ser-Lys(Dnp(dinitrophenyl))-D-Arg-NH2 (SEQ ID NO: 1) including the TACE-cleaved sequence of a membrane-bound TNF as a substrate. The TACE inhibition test method is shown below. Namely, 90 μL of an enzyme solution prepared with an assay buffer A (50 mM tris-hydrochloric acid buffer (pH 7.5) including 200 mM sodium chloride, 5 mM calcium chloride, 10 μM zinc sulfate, and 2 mg/mL bovine serum albumin) and 90 μL of a fluorescent synthetic substrate prepared with an assay buffer B (50 mM tris-hydrochloric acid buffer (pH 7.5) including 200 mM sodium chloride, 5 mM calcium chloride, 10 μM zinc sulfate, and 0.05% PLURONIC F-68) were mixed together, and reacted at 37° C. for 1.5 hours. Enzyme activity was then determined by measuring with a fluorescence intensity meter (Labsystems, Fluoroskan Ascent) at an excitation wavelength of 355 nm and a measurement wavelength of 460 nm.
row,IC50,Structure (SMILES)
1,< 100 nM,Cc1cccn(CC2(c3ccc(F)c(F)c3)NC(=O)NC2=O)c1=O (configuration not stated)
2,< 100 nM,Cc1cccn(CC2(c3ccc(Oc4ccc(Cl)cc4)cc3)NC(=O)NC2=O)c1=O (configuration not stated)
